Reference: publication PMC4154712 (Journal of medicinal chemistry, 2014)
Blank lines part the entries; values can stand above or below the compound they belong to.

What was measured:
[1] = tested on: HCT116 (human colon carcinoma cells); settings: read-out: IC50 ± SD HCT116; ref 10b; cited from earlier work
[2] = tested on: A549 (human lung carcinoma) cells; settings: read-out: IC50 ± SD A549; MTT method; 48 h; ref 10b; cited from earlier work
HeLa cells = assay: Cell cycle analysis in HeLa cells; format: cell-based, human; settings: 24 h; for cell cycle arrest, in words: 20 nM; for cell cycle arrest (G2/M accumulation), in words: 100 nM
tubulin = assay: Tubulin assembly; format: biochemical; settings: for IC50: read-out: Tubulin Assembly IC50 ± SD, tubulin at 10 μM
[3] = tested on: MCF-7 human breast carcinoma cells; assay: cells; settings: MCF7, 96 h, read-out: MCF-7 IC50 ± SD
PC-3 cells = assay: Cell cycle analysis in PC-3 cells; format: cell-based, human; settings: PC-3, lowest concentration (500 nM), 24 h
RD cells = assay: Cell cycle analysis in RD cells; format: cell-based; settings: lowest concentration (500 nM), 24 h
in vitro = settings: human, Caco-2
HepG2 cells = assay: Cell cycle analysis in HepG2 cells; format: cell-based, human; settings: HepG2, lowest concentration (500 nM), 24 h
[4] = tested on: human liver hepatocellular carcinoma cell line HepG2; assay: Growth inhibition of HepG2 cells; format: cell-based; settings: HepG2, 48 h, read-out: IC50 ± SD HepG2
[5] = tested on: HeLa (human cervical carcinoma) cells; settings: read-out: IC50 ± SD HeLA; MTT method; 48 h; ref 10b; cited from earlier work
[6] = tested on: HT29 (human colon adenocarcinoma) cells; settings: read-out: IC50 ± SD HT-29; MTT method; 48 h; ref 10b; cited from earlier work

IC50 (tubulin): > 20000 nM
Compound: O=C(c1ccccc1)c1ccn(-c2ccccc2)c1 [Compound 11, Phenyl(1-phenyl-1H-pyrrol-3-yl)methanone]
effect on tubulin polymerization (in words) (tubulin): did not inhibit tubulin assembly

IC50 (tubulin): ≤ 1000 nM
Compound: COc1cc(C(=O)c2ccn(-c3ccccc3F)c2)cc(OC)c1OC [Compound 15, (1-(2-Fluorophenyl)-1H-pyrrol-3-yl)(3,4,5-trimethoxyphenyl)-methanone]

IC50 (tubulin): > 20000 nM
Compound: COc1cc(C(=O)c2ccn(-c3ccc([N+](=O)[O-])cc3)c2)cc(OC)c1OC [Compound 20, (1-(4-Nitrophenyl)-1H-pyrrol-3-yl)(3,4,5-trimethoxyphenyl)-methanone]

IC50 (tubulin): ≤ 1000 nM
Compound: CNc1cccc(-n2ccc(C(=O)c3cc(OC)c(OC)c(OC)c3)c2)c1 [Compound 24, (1-(3-(Methylamino)phenyl)-1H-pyrrol-3-yl)(3,4,5-trimethoxyphenyl)methanone]

IC50 (tubulin): ≤ 1000 nM
Compound: COc1cc(C(=O)c2ccn(-c3cccc(NS(C)(=O)=O)c3)c2)cc(OC)c1OC [Compound 28, N-(3-(3-(3,4,5-Trimethoxybenzoyl)-1H-pyrrol-1-yl)phenyl)-methanesulfonamide]

IC50 (tubulin): > 20000 nM
Compound: COc1cc(C(=O)c2ccn(-c3cccc(N4CCCCC4)c3)c2)cc(OC)c1OC [Compound 31, (1-(3-(Piperidin-1-yl)phenyl)-1H-pyrrol-3-yl)(3,4,5-trimethoxyphenyl)methanone]

IC50 (tubulin): ≤ 1000 nM
Compound: COc1cc(C(=O)c2ccn(-c3cccc(C)c3)c2)cc(OC)c1OC [Compound 33, (1-(3-Tolyl)-1H-pyrrol-3-yl)(3,4,5-trimethoxyphenyl)methanone]

IC50 (tubulin): ≤ 1000 nM
Compound: COc1cc(C(=O)c2ccn(-c3ccc(C)cc3)c2)cc(OC)c1OC [Compound 34, (1-(4-Tolyl)-1H-pyrrol-3-yl)(3,4,5-trimethoxyphenyl)methanone]

IC50 (tubulin): > 20000 nM
Compound: COc1cc(C(=O)c2ccn(-c3cccc(OCc4ccccc4)c3)c2)cc(OC)c1OC [Compound 41, (1-(3-(Benzyloxy)phenyl)-1H-pyrrol-3-yl)(3,4,5-trimethoxyphenyl)methanone]

IC50 (tubulin): 15000 ± 70 nM
Compound: COc1ccc(-n2ccc(C(=O)c3cc(OC)c(OC)c(OC)c3)c2)cc1[N+](=O)[O-] [Compound 45, (1-(4-Methox y-3-ni tro phenyl)-1H-pyrrol-3-yl)(3,4,5-trimethoxyphenyl)methanone]

IC50 (tubulin): > 20000 nM
Compound: COc1cc(-n2ccc(C(=O)c3ccccc3)c2)cc(OC)c1OC [Compound 50, Phenyl(1-(3,4,5-trimethoxyphenyl)-1H-pyrrol-3-yl)methanone]

The remaining lines, values behind:

Compound: COc1ccc(/C=C\c2cc(OC)c(OC)c(OC)c2)cc1O [Compound 2, combretastatin A-4]
IC50 [1]: 5 ± 0.4 nM | IC50 [2]: > 10000 nM

Compound: COc1cc(C(=O)c2ccn(-c3ccccc3)c2)cc(OC)c1OC [Compound 4, (1-Phenyl-1H-pyrrol-3-yl)-(3,4,5-trimethoxyphenyl)methanone]
cell cycle arrest, in words (HeLa cells): only a minimal effect | cell cycle arrest (G2/M accumulation), in words (HeLa cells): effectively arrested cell cycle progression

Compound: COc1cc(C(=O)c2cc[nH]c2)cc(OC)c1OC [Compound 9, (1H-Pyrrol-3-yl)(3,4,5-trimethoxyphenyl)methanone]
effect on tubulin polymerization (in words) (tubulin): did not inhibit tubulin assembly

Compound: COc1cc(C(=O)c2ccn(C)c2)cc(OC)c1OC [Compound 10, (1-Methyl-1H-pyrrol-3-yl)(3,4,5-trimethoxyphenyl)methanone]
effect on tubulin polymerization (in words) (tubulin): did not inhibit tubulin assembly

Compound: COc1cc(C(=O)c2ccn(-c3ccccc3[N+](=O)[O-])c2)cc(OC)c1OC [Compound 18, (1-(2-Nitrophenyl)-1H-pyrrol-3-yl)(3,4,5-trimethoxyphenyl)-methanone]
IC50 (tubulin): > 20000 nM

Compound: COc1cc(C(=O)c2ccn(-c3cccc([N+](=O)[O-])c3)c2)cc(OC)c1OC [Compound 19, (1-(3-Nitrophenyl)-1H-pyrrol-3-yl)(3,4,5-trimethoxyphenyl)-methanone]
IC50 [3]: 230 ± 60 nM

Compound: COc1cc(C(=O)c2ccn(-c3cccc(N)c3)c2)cc(OC)c1OC [Compound 22, (1-(3-Aminophenyl)-1H-pyrrol-3-yl)(3,4,5-trimethoxyphenyl)-methanone]
cell cycle arrest, in words (PC-3 cells): effectively arrested cell cycle progression | cell cycle arrest, in words (RD cells): effectively arrested cell cycle progression | cell cycle arrest, in words (HeLa cells): as effective as VBL and 2 | cell cycle arrest (G2/M accumulation), in words (HeLa cells): effectively arrested cell cycle progression | Papp (in vitro): > 5 ×10⁻⁶ cm/s | efflux ratio (in vitro): < 2 | cell cycle arrest, in words (HepG2 cells): effectively arrested cell cycle progression

Compound: COc1cc(C(=O)c2ccn(-c3cccc(NC(=N)N)c3)c2)cc(OC)c1OC.Cl [Compound 27, 1-(3-(3-(3,4,5-Trimethoxybenzoyl)-1H-pyrrol-1-yl)phenyl)-guanidine Hydrochloride]
cell cycle arrest, in words (PC-3 cells): effectively arrested cell cycle progression | cell cycle arrest, in words (RD cells): effectively arrested cell cycle progression | cell cycle arrest, in words (HepG2 cells): effectively arrested cell cycle progression

Compound: COc1cc(C(=O)c2ccn(-c3ccc(OC(C)C)cc3)c2)cc(OC)c1OC [Compound 40, (1-(4-Isopropoxyphenyl)-1H-pyrrol-3-yl)(3,4,5-trimethoxyphenyl)-methanone]
IC50 (tubulin): > 20000 nM

Compound: COc1ccc(C(=O)c2ccn(-c3cc(OC)c(OC)c(OC)c3)c2)cc1OC(C)C [Compound 53, (3-Isopropoxy-4-methoxyphenyl)(1-(3,4,5-trimethoxyphenyl)-1H-pyrrol-3-yl)methanone]
IC50 (tubulin): > 20000 nM

Compound: CC(=O)O[C@H]1C(=O)[C@@]2(C)[C@H]([C@H](OC(=O)c3ccccc3)[C@]3(O)C[C@H](OC(=O)[C@H](O)[C@@H](NC(=O)c4ccccc4)c4ccccc4)C(C)=C1C3(C)C)[C@]1(OC(C)=O)CO[C@@H]1C[C@@H]2O [PTX, paclitaxel]
IC50 [4]: 2037 ± 2 nM | IC50 [2]: 7 ± 2 nM

Compound: CC[C@]1(O)C[C@@H]2CN(CCc3c([nH]c4ccccc34)[C@@](C(=O)OC)(c3cc4c(cc3OC)N(C)[C@H]3[C@@](O)(C(=O)OC)[C@H](OC(C)=O)[C@]5(CC)C=CCN6CC[C@]43[C@@H]65)C2)C1 [VBL, vinblastine]
IC50 [2]: 20 ± 2 nM | IC50 [5]: 10 ± 0.6 nM | IC50 [6]: 30 ± 0.8 nM

Compound: CC[C@]1(O)C[C@H]2CN(CCc3c([nH]c4ccccc34)[C@@](C(=O)OC)(c3cc4c(cc3OC)N(C=O)[C@H]3[C@@](O)(C(=O)OC)[C@H](OC(C)=O)[C@]5(CC)C=CCN6CC[C@]43[C@@H]65)C2)C1 [VCR, vincristine]
IC50 [4]: 177 ± 1.6 nM

Compound: (3-Isopropoxy-4-methoxyphenyl)(1-(3,4,5-trimethoxyphenyl)-1H-pyrrol-3-yl)methanone [Compound 52]
IC50 (tubulin): > 20000 nM
